Entries after “also recorded” stand apart in the source; their conditions may differ.
What was measured:
[1] = system: cerebellar neurons on CHO cells expressing MAG; test: Neurite outgrowth on MAG-expressing CHO cells in the presence of MAG peptides (FIGS. 4 and 5); type: cell-based; conditions: for attenuation of inhibition of neurite outgrowth by MAG: peptide 20 μM, 18 hours, FIG. 5; for effect on the ability of MAG-expressing cells to inhibit neurite outgrowth / neurite length relative to neurites extended without peptide or with MAG Igd4 peptides: peptide 15 μM, overnight, FIG. 4; for neurite length relative to neurites extended without peptide or with MAG Igd4 peptides: neurons on MAG-expressing cells
Procedure: FIG. 4 Inhibition of neurite outgrowth from cerebellar neurons by MAG; peptides Cerebellar neurons were isolated (Example 1) and grown overnight on a monolayer of control-transfected CHO cells (not shown) or CHO cells expressing MAG in the absence (striped bar) or the presence (grey bars) of MAG peptides (15 μM) derived from MAG Ig-like domain 4 or 5. Neurons were stained for GAP-43 antigen and neurite length was measured. Results are shown as number of neurons in each treatment having neurites longer than two times the length of the cell body.
FIG. 5 Inhibition of neurite outgrowth from cerebellar neurons by MAG peptides Cerebellar neurons were isolated (Example 1) and grown for 18 hrs on a monolayer of control-transfected CHO cells (R2) or CHO cells expressing MAG in the absence of a peptide (MAG) or in the presence of a peptide derived from sialoadhesin Ig-like domain 5 (non-MAG “control peptide”) or a MAG peptide (M433 or M462 at 20 μM) derived from MAG Ig-like domain 5. Neurons were stained for GAP-43 antigen and neurite length was measured and the average length was calculated for 180-200 neurons (+/−SEM).
Confluent monolayers of control, MAG-, truncated MAG- or chimeric MAG-Sn-expressing CHO cells were established over a 24-hour (h) period in individual chambers of an 8-well tissue culture slide (Lab-Tek). Co-cultures were established as described previously (Doherty et al., Nature, 343, pp. 464-66 (1990); Neuron, 5, pp. 209-19 (1990); Mukhopadhyay et al., Neuron, 13, pp. 757-67 (1994)) by adding approximately 5000 cerebellar neurons to the CHO monolayers. Culture medium was SATO containing 2% FCS. After periods of time as indicated, the co-cultures were fixed for 30 minutes (min) with 4% paraformaldehyde and permeabilized with ice-cold methanol for 2 min. The cells were then blocked for 30 min with DMEM containing 10% FCS and incubated for 2 h with a rabbit polyclonal antibody against the neuronal marker GAP43 (1:4000). Cells were washed three times with PBS-BSA (2%) and then incubated for 30 min at room temperature with a biotinylated donkey anti-rabbit Ig (1:300, Amersham), washed three times, and incubated with streptavidin-conjugated Texas Red (1:300, Amersham) for 30 min. After three more washes, the slides were mounted in Permfluor (Baxter) and viewed with a Zeiss fluorescent microscope. The length of the longest neurite for each GAP43-positive neuron was determined using the Biological Detection System image analysis program (Pittsburgh).
Peptides corresponding to amino acid residues […] of MAG (MAG(343-371)), amino acid residues 363-397 (MAG(363-397)), amino acid residues 394-428 (MAG(394-428)), amino acid residues 422-451 (MAG(422-451)), amino acid residues 442-471 (MAG(442-471)), and amino acid residues 461-498 (MAG(461-498)) were synthesized. Peptides were obtained from SynPep Corp. (Dublin, Calif.). MAG(343-371), MAG(363-397) and MAG(394-428) correspond to amino acid residues from the Ig4 domain of MAG. MAG(422-451), MAG(442-471) and MAG(461-498) corresponds to amino acid residues from the Ig5 domain of MAG. […] Results are shown in FIG. 4 (and are represented as number of neurons with processes longer than 2-times the cell diameter). […] Results are shown in FIG. 5 (and are represented as average neurite length for 180-200 neurons).

[2] = system: cerebellar neurons; test: Neurite outgrowth of cerebellar neurons on CHO cell monolayers expressing MAG or truncated, deleted or chimeric MAG derivatives (FIG. 1); type: cell-based; conditions: cerebellar neurons grown overnight on CHO cells expressing the construct, versus control-transfected CHO cells; GAP-43 staining
Procedure: FIG. 1 Inhibition of neurite outgrowth from cerebellar neurons by truncated MAG or chimeric MAG Cerebellar neurons were isolated (Example 1) and grown overnight on a monolayer of control-transfected CHO cells (clear bar) or a monolayer of CHO cells expressing wild-type MAG or truncated, deleted or chimeric MAG derivatives (grey bars). (See Example 2). Neurons were stained for GAP-43 antigen and neurite length was measured and the average length was calculated for 180-200 neurons (+/−SEM).
Cerebellar neurons were isolated essentially as described in Doherty et al., Nature, 343, pp. 464-66 (1990); Neuron, 5, pp. 209-19 (1990); and Kleitman et al., Culturing Nerve Cells, pp. 337-78, MIT Press, Cambridge, Mass./London, England (G. Banker and K. Goslin, Eds.) (1991). Briefly, for animals up to nine days of age, the cerebellum was removed from two animals, and placed in 5 ml of 0.025% trypsin in PBS, triturated, and incubated for a further 10 minutes (min) at 37° C. […]
Confluent monolayers of control, MAG-, truncated MAG- or chimeric MAG-Sn-expressing CHO cells were established over a 24-hour (h) period in individual chambers of an 8-well tissue culture slide (Lab-Tek). […] The length of the longest neurite for each GAP43-positive neuron was determined using the Biological Detection System image analysis program (Pittsburgh).

Row | Molecule | attenuation of inhibition of neurite outgrowth by MAG [1] | effect on the ability of MAG-expressing cells to inhibit neurite outgrowth [1] | neurite length relative to neurites extended without peptide or with MAG Igd4 peptides [1] | also measured
1 | M433: peptide of MAG amino acid residues 433-457 (SEQ ID NO: 20) (VVKSNPEPSVAFELPSRNVTVNETE) | even more strongly attenuated inhibition by MAG |  |  | 
2 | M462: peptide of MAG amino acid residues 462-486 (SEQ ID NO: 24) (YSERSGLLLTSILTLRGQAQAPPRV) | even more strongly attenuated inhibition by MAG |  |  | 
3 | MAG(422-451): peptide of MAG amino acid residues 422-451 (SEQ ID NO: 15) (AAARDTVQCLCVVKSNPEPSVAFELPSRNV) |  | strongly attenuated inhibition by MAG | at least twice as long | 
4 | MAG(442-471): peptide of MAG amino acid residues 442-471 (SEQ ID NO: 16) (VAFELPSRNVTVNETEREFVYSERSGLLLT) |  | strongly attenuated inhibition by MAG | at least twice as long | 
5 | MAG(461-498): 38 amino acid peptide of MAG residues 461-498 (SEQ ID NO: 23) (VYSERSGLLLTSILTLRGQAQAPPRVICTSRNLYGTQS) |  | no apparent effect on inhibition of neurite outgrowth by MAG; also recorded: does not reduce the ability of wild-type MAG to inhibit neurite outgrowth |  | 
6 | MAG: full-length MAG containing all five Ig-like domains, expressed on CHO cells (protein, UniProt P20917 1-627, looked up, full-length, full-length MAG containing all five Ig-like domains, expressed on CHO cells) MIFLATLPLFWIMISASRGGHWGAWMPSTISAFEGTCVSIPCRFDFPDELRPAVVHGVWYFNSPYPKNYPPVVFKSRTQVVHESFQGRSRLLGDLGLRNCTLLLSTLSPELGGKYYFRGDLGGYNQYTFSEHSVLDIVNTPNIVVPPEVVAGTEVEVSCMVPDNCPELRPELSWLGHEGLGEPTVLGRLREDEGTWVQVSLLHFVPTREANGHRLGCQAAFPNTTLQFEGYASLDVKYPPVIVEMNSSVEAIEGSHVSLLCGADSNPPPLLTWMRDGMVLREAVAKSLYLDLEEVTPGEDGVYACLAENAYGQDNRTVELSVMYAPWKPTVNGTVVAVEGETVSILCSTQSNPDPILTIFKEKQILATVIYESQLQLELPAVTPEDDGEYWCVAENQYGQRATAFNLSVEFAPIILLESHCAAARDTVQCLCVVKSNPEPSVAFELPSRNVTVNETEREFVYSERSGLLLTSILTIRGQAQAPPRVICTSRNLYGTQSLELPFQGAHRLMWAKIGPVGAVVAFAILIAIVCYITQTRRKKNVTESSSFSGGDNPHVLYSPEFRISGAPDKYESEKQRLGSERRLLGLRGESPELDLSYSHSDLGKRPTKDSYTLTEELAEYAEIRVK |  |  |  | inhibition of neurite outgrowth by the expressed MAG construct [2]: capable of inhibiting neurite outgrowth

From patent US8163700B2, “Inhibitors of myelin-associated glycoprotein (MAG) activity for regulating neural growth and regeneration” (Research Foundation of City University of New York, priority 2002, dated 2012)
